Assay results published in ChEMBL document CHEMBL4610000, “Discovery of structurally distinct tricyclic M4 positive allosteric modulator (PAM) chemotypes” (Bioorg Med Chem Lett, 2020).
pEC50: −log10 of the molar value.

Assays:
[1] = target: T1, Muscarinic acetylcholine receptor M4 (Homo sapiens, UniProt P08173); assay: Positive allosteric modulation of human muscarinic M4 receptor expressed in CHO cells co-expressing Gqi5 assessed as increase in acetylcholine-induced calcium mobilization; format: functional, cell-based
T1 sequence (P08173 whole entry): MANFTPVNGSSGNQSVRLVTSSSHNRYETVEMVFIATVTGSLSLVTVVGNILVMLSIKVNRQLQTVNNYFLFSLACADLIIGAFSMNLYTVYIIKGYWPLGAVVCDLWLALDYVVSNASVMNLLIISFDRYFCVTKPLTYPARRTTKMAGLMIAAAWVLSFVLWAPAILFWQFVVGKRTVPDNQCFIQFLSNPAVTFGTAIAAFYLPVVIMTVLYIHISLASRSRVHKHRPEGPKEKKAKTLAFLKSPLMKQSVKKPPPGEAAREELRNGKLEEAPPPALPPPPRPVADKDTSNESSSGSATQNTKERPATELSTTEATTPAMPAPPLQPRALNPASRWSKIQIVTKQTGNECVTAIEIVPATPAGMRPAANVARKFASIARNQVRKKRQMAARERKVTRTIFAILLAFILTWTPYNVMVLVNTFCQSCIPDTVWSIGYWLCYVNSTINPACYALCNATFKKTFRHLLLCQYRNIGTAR

[2] = target: T2, Muscarinic acetylcholine receptor M4 (Homo sapiens) (UniProt P08173); assay: Positive allosteric modulation of human muscarinic M4 receptor expressed in CHO cells co-expressing Gqi5 assessed as increase in acetylcholine-induced calcium mobilization relative to acetylcholine; format: functional, cell-based
T2 sequence (whole entry): T1 sequence (P08173 whole entry)

[3] = target: T3, Muscarinic acetylcholine receptor M4 (Rattus norvegicus, UniProt P08485); assay: Positive allosteric modulation of rat muscarinic M4 receptor
T3 sequence (P08485 whole entry): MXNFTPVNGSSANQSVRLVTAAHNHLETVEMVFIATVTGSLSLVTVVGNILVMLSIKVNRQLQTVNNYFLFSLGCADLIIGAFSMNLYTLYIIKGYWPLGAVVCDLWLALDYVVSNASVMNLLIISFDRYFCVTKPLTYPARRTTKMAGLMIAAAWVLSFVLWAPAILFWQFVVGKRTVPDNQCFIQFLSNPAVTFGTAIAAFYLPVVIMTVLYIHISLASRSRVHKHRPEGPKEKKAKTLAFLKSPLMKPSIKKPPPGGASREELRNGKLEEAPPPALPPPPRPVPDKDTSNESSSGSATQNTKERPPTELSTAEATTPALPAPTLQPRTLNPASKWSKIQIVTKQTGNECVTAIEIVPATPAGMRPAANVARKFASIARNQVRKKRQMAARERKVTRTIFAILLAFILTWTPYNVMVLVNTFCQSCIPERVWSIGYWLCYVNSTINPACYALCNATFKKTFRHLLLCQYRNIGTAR

[4] = Intrinsic clearance in rat microsomes; format: ADME, Microsome
[5] = Intrinsic clearance in human microsomes; format: ADME, Microsome
[6] = Unbound fraction in rat plasma; format: ADME, cell-free
[7] = Unbound fraction in human plasma; format: ADME, cell-free
[8] = Unbound fraction in rat brain; format: ADME, tissue-based
[9] = Brain to plasma permeability coefficient, Kp of the compound in Sprague-Dawley rat at 0.2 mg/kg, iv measured after 0.25 hrs; format: ADME, organism-based; conditions: brain and plasma
[10] = Unbound brain-to-plasma concentration ratio in Sprague-Dawley rat at 0.2 mg/kg, iv measured after 0.25 hrs; format: ADME, organism-based; conditions: brain and plasma, read-out: K(p,uu,brain)

| pEC50 [1] | %max [2] | pEC50 [3] | SMILES | also measured |
| --- | --- | --- | --- | --- |
| 6.34 | 83% | – | Cn1nnc2ccc(C(=O)NC3CN(c4ncc(C#N)cc4Cl)C3)c(N)c21 | – |
| 5.45 | 103% | – | Cc1c2c(N)c(C(=O)NC3CN(c4ncccc4F)C3)ccc2nn1C | – |
| 5.61 | 94% | – | Cn1nnc2ccc(C(=O)NC3CN(c4ccc(F)c(F)c4)C3)c(N)c21 | – |
| 7.20 | 81% | 6.83 | Cn1nnc2ccc3c(NC4CN(c5cc(Cl)ncc5Cl)C4)ncnc3c21 | CLint scaled [4]: 6.6 L/h/kg; CLint scaled [5]: 1.26 L/h/kg; fraction unbound [6]: 0.007; fraction unbound [7]: 0.021; fraction unbound [8]: 0.003; Kp at 0.25 h [9]: 0.25; Kp uu at 0.25 h [10]: 0.11 |
| – | – | 6.59 | Cc1c2cc(C(=O)NC3CN(c4cc(Cl)ncc4Cl)C3)ccc2nn1C | CLint scaled [4]: 1.68 L/h/kg; CLint scaled [5]: 1.98 L/h/kg; Kp at 0.25 h [9]: 0.05; Kp uu at 0.25 h [10]: 0.04 |
| 6.07 | 76% | – | Cc1c2c(ccc3c(NC4CCCC4)ncnc32)nn1C | – |
| 5.76 | 60% | – | Cn1nnc2ccc(C(=O)NC3CN(c4ccc(C#N)cn4)C3)c(N)c21 | – |
| 6.33 | 95% | 6.74 | COc1ccc(CNc2ncnc3c2ccc2nn(C)c(C)c23)cc1F | – |
| 6.28 | 90% | – | Cc1c2c(ccc3c(N4CC5(COC5)C4)ncnc32)nn1C | – |
| 5.83 | 86% | – | Cc1c2c(ccc3c(NCc4ccc(F)c(F)c4)ncnc32)nn1C | – |
| 6.44 | 65% | 6.78 | Cn1nnc2ccc(C(=O)NC3CN(c4ncc(Cl)cc4F)C3)c(N)c21 | – |
| 6.02 | 90% | – | Cc1c2c(ccc3c(NCc4ccc(C(=O)NCC(C)(C)C)cc4)ncnc32)nn1C | – |
| 6.05 | – | – | [2H]C([2H])(Nc1ncnc2c1ccc1nn(C)c(C)c12)c1ccc(C(C)(C)O)cc1 | – |
| 5.21 | 90% | – | Cc1c2c(N)c(C(=O)NC3CN(c4ncc(F)cn4)C3)ccc2nn1C | – |
| 6.61 | 96% | 7.14 | Cc1c2c(N)c(C(=O)NC3CN(c4ncc(Cl)cc4F)C3)ccc2nn1C | – |
| 6.62 | 100% | 6.77 | Cc1c2c(ccc3c(NCc4ccc(C(=O)NC5CCCC5)cc4)ncnc32)nn1C | – |
| 6.33 | 98% | – | Cc1c2c(ccc3c(CC(C)(C)C)ncnc32)nn1C | – |
| 6.21 | 85% | – | Cc1c2c(N)c(C(=O)NC3CN(c4ccc(F)c(F)c4)C3)ccc2nn1C | – |
| 6.83 | 80% | 7.09 | COc1cc(N2CC(NC(=O)c3ccc4nn(C)c(C)c4c3N)C2)c(Cl)cn1 | CLint scaled [4]: 1.8 L/h/kg; CLint scaled [5]: 0.54 L/h/kg; fraction unbound [6]: 0.008; fraction unbound [7]: 0.045; fraction unbound [8]: 0.011; Kp at 0.25 h [9]: 0.18; Kp uu at 0.25 h [10]: 0.25 |
| 6.26 | 86% | – | Cc1c2c(ccc3c(NCc4ccc(C(C)(C)O)cc4)ncnc32)nn1C | %max ([2]; tested as the 2H-labelled form): 86% |
| 5.35 | 84% | – | Cn1nnc2ccc(C(=O)NC3CN(c4cccc(Cl)n4)C3)c(N)c21 | – |

The remaining lines, values behind:

| SMILES | pEC50 [1] | %max [2] | pEC50 [3] | also measured |
| --- | --- | --- | --- | --- |
| Cc1c2c(N)c(C(=O)NC3CN(c4cccc(Cl)n4)C3)ccc2nn1C | 5.84 | 78% | – | – |
| Cn1nnc2ccc(C(=O)NC3CN(c4cc(Cl)ncc4Cl)C3)c(N)c21 | 7.04 | 63% | 6.80 | CLint scaled [4]: 7.2 L/h/kg; CLint scaled [5]: 1.62 L/h/kg; fraction unbound [6]: 0.032; fraction unbound [7]: 0.084; fraction unbound [8]: 0.033; Kp at 0.25 h [9]: 0.17; Kp uu at 0.25 h [10]: 0.18 |
| Cn1nnc2ccc3c(NC4CCCC4)ncnc3c21 | 6.09 | 69% | – | – |
| COc1cc(N2CC(NC(=O)c3ccc4nnn(C)c4c3N)C2)c(Cl)cn1 | 6.43 | 71% | 6.63 | – |
| Cc1c2c(N)c(C(=O)NC3CN(c4ccc(C(F)(F)F)nc4)C3)ccc2nn1C | 6.86 | 80% | 6.95 | – |
| COc1cc(N2CC(Nc3ncnc4c3ccc3nn(C)c(C)c34)C2)c(Cl)cn1 | 6.42 | 86% | 6.65 | CLint scaled [4]: 7.2 L/h/kg; CLint scaled [5]: 3.3 L/h/kg; fraction unbound [6]: 0.002; fraction unbound [7]: 0.007; fraction unbound [8]: 0.005; Kp at 0.25 h [9]: 1.55; Kp uu at 0.25 h [10]: 3.88 |
| Cn1nnc2ccc(C(=O)NC3CN(c4cc(Cl)ncc4Cl)C3)cc21 | – | – | 6.14 | CLint scaled [4]: 0.6 L/h/kg; CLint scaled [5]: 1.26 L/h/kg; Kp at 0.25 h [9]: < 0.05; Kp uu at 0.25 h [10]: < 0.11 |
| Cc1c2c(ccc3c(N4CCCC4)ncnc32)nn1C | 6.20 | 74% | – | – |
| Cn1nnc2ccc3c(NCc4ccc(C(C)(C)O)cc4)ncnc3c21 | 5.76 | 97% | – | – |
| COc1ccc(CNc2ncnc3c2ccc2nnn(C)c23)cc1F | 6.23 | 74% | – | – |
| Cc1c2c(N)c(C(=O)NC3CN(c4ncc(C#N)cc4Cl)C3)ccc2nn1C | 6.80 | 93% | 6.89 | – |
| Cc1c2c(ccc3c(NC4CN(c5cc(Cl)ncc5Cl)C4)ncnc32)nn1C | 6.56 | 101% | 6.60 | CLint scaled [4]: 10.2 L/h/kg; CLint scaled [5]: 7.2 L/h/kg; fraction unbound [6]: 0.004; fraction unbound [7]: 0.008; fraction unbound [8]: 0.002; Kp at 0.25 h [9]: 0.21; Kp uu at 0.25 h [10]: 0.11 |
| COc1cc(N2CC(Nc3ncnc4c3ccc3nnn(C)c34)C2)c(Cl)cn1 | 5.83 | 93% | – | – |
| Cc1c2c(N)c(C(=O)NC3CN(c4cc(Cl)ncc4Cl)C3)ccc2nn1C | 6.90 | 86% | 7.38 | CLint scaled [4]: 10.8 L/h/kg; CLint scaled [5]: 3 L/h/kg; fraction unbound [6]: 0.01; fraction unbound [7]: 0.034; fraction unbound [8]: 0.025; Kp at 0.25 h [9]: 0.12; Kp uu at 0.25 h [10]: 0.3 |
| Cn1nnc2ccc(C(=O)NC3CN(c4ncc(F)cc4Cl)C3)c(N)c21 | 5.44 | 80% | – | – |
| Cn1nnc2ccc(C(=O)NC3CN(c4ccnc(C(F)(F)F)c4)C3)c(N)c21 | 6.09 | 79% | – | – |
| Cc1c2c(ccc3c(NCc4ccc(C(=O)NC5CCC5)cc4)ncnc32)nn1C | 6.32 | 100% | 6.49 | – |
